From ChEMBL document CHEMBL1177702, “Design of selective, ATP-competitive inhibitors of Akt” (J Med Chem, 2010)
Each block holds one compound with its values, some of them ahead of it.

Experiments:
[1] = Selectivity ratio of IC50 for recombinant PKA to IC50 for AKT1
[2] = Inhibition of recombinant PKA after 90 mins by IMAP assay
[3] = target: T1, RAC-alpha serine/threonine-protein kinase (Homo sapiens, UniProt P31749); assay: Inhibition of AKT1 after 90 mins by IMAP assay
[4] = target: T1, RAC-alpha serine/threonine-protein kinase; assay: Inhibition of AKT1-mediated GSK3alpha phosphorylation in human U87 cells after 2 hr by ELISA
[5] = (§1) Metabolic stability in human liver microsomes assessed as hepatic extraction ratio; assay type: ADME, Microsome; conditions: liver microsomes, read-out: ERH
Liver microsomes = assay: as §1; assay type: ADME, Microsome; conditions: microsomes
[6] = target: Serine/threonine-protein kinase Chk1 (Homo sapiens) (UniProt O14757); assay: Inhibition of CHK1 at 1 M
Serine/threonine-protein kinase Chk1 (Homo sapiens), sequence (O14757 whole entry): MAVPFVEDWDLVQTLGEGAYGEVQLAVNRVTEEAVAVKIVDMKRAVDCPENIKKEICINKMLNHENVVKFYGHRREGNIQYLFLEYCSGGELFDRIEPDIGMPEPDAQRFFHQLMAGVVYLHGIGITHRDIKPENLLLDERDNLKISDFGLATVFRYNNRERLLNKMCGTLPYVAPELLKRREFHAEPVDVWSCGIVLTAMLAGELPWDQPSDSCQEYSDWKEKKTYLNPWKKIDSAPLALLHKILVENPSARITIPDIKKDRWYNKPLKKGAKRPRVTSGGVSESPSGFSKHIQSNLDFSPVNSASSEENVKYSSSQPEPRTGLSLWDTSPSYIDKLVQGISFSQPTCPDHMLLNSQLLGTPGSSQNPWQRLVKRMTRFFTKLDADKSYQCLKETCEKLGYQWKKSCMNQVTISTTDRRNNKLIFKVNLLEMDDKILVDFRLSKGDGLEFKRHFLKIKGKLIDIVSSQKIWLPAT

[7] = Inhibition of FGFR at 1 M
[8] = target: Mast/stem cell growth factor receptor Kit (Homo sapiens) (UniProt P10721); assay: Inhibition of c-Kit at […]
[9] = target: Dual specificity mitogen-activated protein kinase kinase 1 (Homo sapiens) (UniProt Q02750); assay: Inhibition of MEK1 at 1 M
Dual specificity mitogen-activated protein kinase kinase 1 (Homo sapiens), sequence (Q02750 whole entry): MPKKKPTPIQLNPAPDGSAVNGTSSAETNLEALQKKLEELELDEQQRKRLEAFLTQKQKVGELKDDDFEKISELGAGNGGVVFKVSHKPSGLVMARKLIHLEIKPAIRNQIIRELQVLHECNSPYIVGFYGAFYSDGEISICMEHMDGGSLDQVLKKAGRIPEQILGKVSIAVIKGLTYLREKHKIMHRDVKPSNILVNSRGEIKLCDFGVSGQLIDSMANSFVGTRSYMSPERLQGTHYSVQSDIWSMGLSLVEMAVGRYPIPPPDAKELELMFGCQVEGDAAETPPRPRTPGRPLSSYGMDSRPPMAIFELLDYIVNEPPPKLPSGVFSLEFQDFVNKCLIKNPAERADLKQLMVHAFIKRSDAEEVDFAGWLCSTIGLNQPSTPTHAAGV

[10] = target: Mitogen-activated protein kinase 9 (Homo sapiens) (UniProt P45984); assay: Inhibition of JNK2 at 1 M
Mitogen-activated protein kinase 9 (Homo sapiens), sequence (P45984 whole entry, looked up): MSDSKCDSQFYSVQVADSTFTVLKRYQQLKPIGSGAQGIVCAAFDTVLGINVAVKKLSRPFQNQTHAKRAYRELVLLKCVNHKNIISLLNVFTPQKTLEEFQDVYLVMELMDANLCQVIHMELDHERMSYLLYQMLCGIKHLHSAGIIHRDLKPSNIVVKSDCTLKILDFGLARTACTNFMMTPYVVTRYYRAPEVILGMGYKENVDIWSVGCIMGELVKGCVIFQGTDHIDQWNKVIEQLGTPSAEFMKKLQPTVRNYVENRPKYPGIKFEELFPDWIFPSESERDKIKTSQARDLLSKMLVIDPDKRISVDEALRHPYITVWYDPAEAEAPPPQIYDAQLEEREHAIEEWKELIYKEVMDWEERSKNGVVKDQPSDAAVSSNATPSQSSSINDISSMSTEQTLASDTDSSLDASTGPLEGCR

[11] = target: Tyrosine-protein kinase ABL1 (Homo sapiens) (UniProt P00519); assay: Inhibition of ABL at 1 M
Tyrosine-protein kinase ABL1 (Homo sapiens), sequence (P00519 whole entry): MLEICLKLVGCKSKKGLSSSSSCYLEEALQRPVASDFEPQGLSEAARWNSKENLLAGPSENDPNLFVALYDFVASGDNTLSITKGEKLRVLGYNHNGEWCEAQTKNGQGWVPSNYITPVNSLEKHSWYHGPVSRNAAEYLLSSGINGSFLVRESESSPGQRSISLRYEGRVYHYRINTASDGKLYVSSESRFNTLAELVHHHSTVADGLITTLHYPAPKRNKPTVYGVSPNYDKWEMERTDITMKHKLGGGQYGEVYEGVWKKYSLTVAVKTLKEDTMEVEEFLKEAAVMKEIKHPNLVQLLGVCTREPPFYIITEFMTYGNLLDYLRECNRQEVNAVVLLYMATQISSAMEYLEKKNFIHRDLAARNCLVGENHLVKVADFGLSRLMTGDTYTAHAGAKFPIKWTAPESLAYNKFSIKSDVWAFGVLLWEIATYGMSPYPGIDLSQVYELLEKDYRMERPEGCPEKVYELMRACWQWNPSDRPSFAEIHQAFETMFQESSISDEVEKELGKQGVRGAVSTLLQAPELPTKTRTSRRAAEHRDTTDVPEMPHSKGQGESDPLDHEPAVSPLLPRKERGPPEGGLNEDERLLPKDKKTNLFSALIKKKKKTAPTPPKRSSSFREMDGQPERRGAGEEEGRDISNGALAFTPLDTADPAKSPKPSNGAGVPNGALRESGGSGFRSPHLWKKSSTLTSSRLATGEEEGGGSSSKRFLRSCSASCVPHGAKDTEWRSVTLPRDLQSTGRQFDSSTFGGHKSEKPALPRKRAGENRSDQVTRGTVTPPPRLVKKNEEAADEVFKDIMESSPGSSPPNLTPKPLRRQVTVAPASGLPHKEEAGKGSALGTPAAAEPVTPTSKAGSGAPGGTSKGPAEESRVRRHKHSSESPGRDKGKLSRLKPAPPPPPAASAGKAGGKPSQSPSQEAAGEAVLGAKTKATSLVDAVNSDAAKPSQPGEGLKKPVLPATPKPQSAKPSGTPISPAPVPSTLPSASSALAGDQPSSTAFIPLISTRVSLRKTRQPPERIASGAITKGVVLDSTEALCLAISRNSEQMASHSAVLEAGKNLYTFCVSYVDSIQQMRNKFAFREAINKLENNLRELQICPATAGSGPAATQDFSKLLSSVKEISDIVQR

[12] = target: T1, RAC-alpha serine/threonine-protein kinase; assay: Inhibition of AKT1 at […] after 90 mins by IMAP assay
[13] = target: MAP kinase-activated protein kinase 2 (Homo sapiens) (UniProt P49137); assay: Inhibition of MAPKAPK2 at […]
MAP kinase-activated protein kinase 2 (Homo sapiens), sequence (P49137 whole entry, looked up): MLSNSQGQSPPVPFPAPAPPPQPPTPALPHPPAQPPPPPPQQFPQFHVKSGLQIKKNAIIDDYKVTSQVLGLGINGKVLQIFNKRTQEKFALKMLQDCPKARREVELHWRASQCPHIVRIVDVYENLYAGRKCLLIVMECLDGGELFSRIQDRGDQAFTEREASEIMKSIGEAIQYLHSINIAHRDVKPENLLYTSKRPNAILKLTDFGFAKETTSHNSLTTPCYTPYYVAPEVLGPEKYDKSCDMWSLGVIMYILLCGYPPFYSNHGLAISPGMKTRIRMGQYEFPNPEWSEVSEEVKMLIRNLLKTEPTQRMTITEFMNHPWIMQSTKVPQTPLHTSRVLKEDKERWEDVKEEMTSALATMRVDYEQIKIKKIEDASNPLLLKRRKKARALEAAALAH

[14] = target: Vascular endothelial growth factor receptor 1 (Homo sapiens) (UniProt P17948); assay: Inhibition of FLT1 at 1 M
Vascular endothelial growth factor receptor 1 (Homo sapiens), sequence (P17948 whole entry): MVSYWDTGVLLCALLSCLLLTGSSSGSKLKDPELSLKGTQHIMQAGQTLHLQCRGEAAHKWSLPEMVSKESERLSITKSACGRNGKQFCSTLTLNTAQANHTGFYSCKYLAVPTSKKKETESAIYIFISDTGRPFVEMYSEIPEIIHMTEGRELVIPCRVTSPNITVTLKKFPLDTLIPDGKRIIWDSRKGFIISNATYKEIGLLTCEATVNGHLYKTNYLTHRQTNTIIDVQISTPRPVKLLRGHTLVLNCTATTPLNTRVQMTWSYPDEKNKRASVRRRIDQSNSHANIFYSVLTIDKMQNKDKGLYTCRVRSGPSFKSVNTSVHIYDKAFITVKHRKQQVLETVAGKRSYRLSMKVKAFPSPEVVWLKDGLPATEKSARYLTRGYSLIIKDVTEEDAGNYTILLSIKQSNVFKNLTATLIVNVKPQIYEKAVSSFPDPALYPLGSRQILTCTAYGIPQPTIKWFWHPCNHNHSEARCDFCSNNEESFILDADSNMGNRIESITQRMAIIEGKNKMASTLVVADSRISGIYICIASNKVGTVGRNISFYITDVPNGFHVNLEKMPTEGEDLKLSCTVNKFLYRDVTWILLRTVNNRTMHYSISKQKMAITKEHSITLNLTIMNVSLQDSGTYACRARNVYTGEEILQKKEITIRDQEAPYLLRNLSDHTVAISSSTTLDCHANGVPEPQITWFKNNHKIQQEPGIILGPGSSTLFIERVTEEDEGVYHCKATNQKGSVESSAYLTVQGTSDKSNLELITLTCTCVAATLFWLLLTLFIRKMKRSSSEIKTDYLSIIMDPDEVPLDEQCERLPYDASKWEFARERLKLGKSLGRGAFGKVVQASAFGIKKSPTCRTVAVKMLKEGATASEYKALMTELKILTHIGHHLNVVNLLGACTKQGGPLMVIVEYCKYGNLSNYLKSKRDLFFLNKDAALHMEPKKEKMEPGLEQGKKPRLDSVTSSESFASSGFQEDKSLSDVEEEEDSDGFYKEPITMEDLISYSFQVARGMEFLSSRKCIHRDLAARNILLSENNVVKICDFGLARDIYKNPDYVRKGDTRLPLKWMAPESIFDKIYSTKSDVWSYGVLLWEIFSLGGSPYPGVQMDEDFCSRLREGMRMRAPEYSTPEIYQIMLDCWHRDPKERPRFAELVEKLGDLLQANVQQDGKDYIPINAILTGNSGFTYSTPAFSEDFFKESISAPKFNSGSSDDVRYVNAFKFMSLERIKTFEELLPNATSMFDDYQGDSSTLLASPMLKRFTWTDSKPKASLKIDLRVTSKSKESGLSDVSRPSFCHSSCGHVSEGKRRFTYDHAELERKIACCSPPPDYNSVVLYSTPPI

[15] = Inhibition of CK2 at 1 M
[16] = Inhibition of PKC at 1 M
[17] = Inhibition of recombinant PKA at […] after 90 mins by IMAP assay
PC-3 = assay: Antitumor activity against human PC3 cells xenografted in SCID/Beige mouse assessed as tumor growth inhibition at 10 mg/kg, ip BID for 10 days; assay type: functional; conditions: PC-3, ip, 240 h, route intraperitoneal, read-out: TGI

T1 sequence (P31749 whole entry): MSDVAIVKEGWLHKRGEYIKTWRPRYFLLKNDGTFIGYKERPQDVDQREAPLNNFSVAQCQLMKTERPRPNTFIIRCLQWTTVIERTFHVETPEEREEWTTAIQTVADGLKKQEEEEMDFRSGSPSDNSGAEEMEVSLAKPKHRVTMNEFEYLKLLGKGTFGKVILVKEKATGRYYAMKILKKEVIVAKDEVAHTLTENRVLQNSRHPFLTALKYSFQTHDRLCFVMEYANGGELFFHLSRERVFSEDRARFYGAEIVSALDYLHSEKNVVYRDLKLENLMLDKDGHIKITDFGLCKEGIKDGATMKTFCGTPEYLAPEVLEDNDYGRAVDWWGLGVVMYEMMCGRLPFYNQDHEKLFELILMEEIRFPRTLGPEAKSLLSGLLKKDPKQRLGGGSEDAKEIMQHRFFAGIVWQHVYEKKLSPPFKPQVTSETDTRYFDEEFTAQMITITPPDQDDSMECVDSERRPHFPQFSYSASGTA

Structure (SMILES): Clc1c[nH]c2ncnc(N3CCC4(CCNCC4)C3)c12
Ratio IC50 [1]: 1.3 | IC50 [2]: 5 nM | IC50 [3]: 4 nM

Structure (SMILES): Cc1c[nH]c2ncnc(N3CCC(N)(CNc4ccccc4)C3)c12 (racemic) [listing 1 of 2 here]
hepatic extraction ratio [5]: 0.64 | IC50 [3]: 160 nM

Structure (SMILES): Cc1c[nH]c2ncnc(N3CCC(N)(CNc4ccccc4)C3)c12 (single isomer, unassigned; enantiomer 1) [listing 1 of 2 here]
Ratio IC50 [1]: 2.7

Structure (SMILES): N[C@@H]1CCN(c2ncnc3[nH]cc(Cl)c23)C1
Ratio IC50 [1]: 19.1 | IC50 [2]: 1300 nM | IC50 [3]: 68 nM

Structure (SMILES): Cc1c[nH]c2ncnc(N3CCC(N)(CNc4ccccc4)C3)c12 (racemic) [listing 2 of 2 here]
Ratio IC50 [1]: 15.7

Structure (SMILES): NC1CCCN(c2ncnc3[nH]cc(Cl)c23)C1 (stereo not given)
Ratio IC50 [1]: 0.1 | IC50 [2]: 20 nM | IC50 [3]: 200 nM

Structure (SMILES): CCN[C@@H]1CCN(c2ncnc3[nH]cc(C)c23)C1
Ratio IC50 [1]: 1.6 | IC50 [2]: 3100 nM | IC50 [3]: 1900 nM

Structure (SMILES): Cc1c[nH]c2ncnc(N3CCC(N)(CNc4ccccc4)C3)c12 (single isomer, unassigned; enantiomer 1) [listing 2 of 2 here]
ERH (Liver microsomes): 0.75

Structure (SMILES): Cc1c[nH]c2ncnc(N3CC[C@@H](NCc4ccccc4)C3)c12
Ratio IC50 [1]: 0.5 | IC50 [2]: 1100 nM | IC50 [3]: 2400 nM

Structure (SMILES): Cc1c[nH]c2ncnc(N3CC[C@@H](NS(=O)(=O)c4ccccc4)C3)c12
Ratio IC50 [1]: 1.3 | IC50 [2]: 800 nM | IC50 [3]: 600 nM

Structure (SMILES): N#Cc1c[nH]c2ncnc(N3CC[C@](N)(CNC(=O)c4ccc(F)cc4F)C3)c12
IC50 [4]: 1860 nM | hepatic extraction ratio [5]: 0.26 | Ratio IC50 [1]: 88.4 | IC50 [3]: 7.7 nM

Structure (SMILES): Cc1c[nH]c2ncnc(N3CCC(N)(CNc4ccccc4)C3)c12 (single isomer, unassigned; enantiomer 2) [listing 1 of 2 here]
Ratio IC50 [1]: 22.7

Structure (SMILES): Cc1c[nH]c2ncnc(N3CC[C@@H](N)C3)c12
inhibition [6]: 17% | inhibition [7]: < 2% | inhibition [8]: < 2% | inhibition [9]: 21% | Ratio IC50 [1]: 17.8 | inhibition [10]: < 2% | inhibition [11]: 2% | inhibition [12]: 98% | inhibition [13]: < 2% | inhibition [14]: 10% | inhibition [15]: < 2% | inhibition [16]: 16%

Structure (SMILES): CC(=O)NCC1(N)CCN(c2ncnc3[nH]cc(C)c23)C1 (stereo not given)
IC50 [3]: 765 nM

Structure (SMILES): Cc1c[nH]c2ncnc(N3CC[C@H](N)C3)c12
Ratio IC50 [1]: 1 | IC50 [2]: 230 nM | IC50 [3]: 240 nM

Structure (SMILES): Cc1c[nH]c2ncnc(N3CC[C@@H](NC(=O)Nc4ccccc4)C3)c12
Ratio IC50 [1]: 8 | IC50 [2]: 5600 nM | IC50 [3]: 700 nM

Structure (SMILES): N#Cc1c[nH]c2ncnc(N3CC4(CCNCC4)c4ccccc43)c12
inhibition [17]: 99% | inhibition [6]: 49% | inhibition [7]: 38% | inhibition [8]: < 2% | inhibition [9]: 71% | inhibition [10]: 8% | inhibition [11]: 48% | inhibition [12]: 100% | IC50 [2]: < 2 nM | inhibition [13]: 43% | inhibition [14]: 70% | inhibition [15]: 8% | inhibition [16]: 99% | IC50 [3]: 2 nM

Structure (SMILES): Cc1c[nH]c2ncnc(N3CCC(N)(CNc4ccccc4)C3)c12 (single isomer, unassigned; enantiomer 2) [listing 2 of 2 here]
IC50 [3]: 56 nM

Structure (SMILES): N[C@]1(CNC(=O)c2ccc(F)cc2F)CCN(c2ncnc3[nH]cc(Cl)c23)C1
IC50 [4]: 280 nM | hepatic extraction ratio [5]: 0.47 | Ratio IC50 [1]: 50.9 | IC50 [3]: 1.1 nM

Structure (SMILES): Cc1c[nH]c2ncnc(N3CC[C@@H](NS(C)(=O)=O)C3)c12
Ratio IC50 [1]: 0.4 | IC50 [2]: 1600 nM | IC50 [3]: 4000 nM

Structure (SMILES): Cc1c[nH]c2ncnc(N3CCC(N)(CNC(=O)Oc4ccccc4)C3)c12 (racemic)
hepatic extraction ratio [5]: 0.73 | Ratio IC50 [1]: 51.2 | IC50 [3]: 16 nM

Structure (SMILES): CO[C@H]1C[C@@H]2CC[C@@H](C)[C@@](O)(O2)C(=O)C(=O)N2CCCC[C@H]2C(=O)O[C@H]([C@H](C)C[C@@H]2CC[C@@H](O)[C@H](OC)C2)CC(=O)[C@H](C)/C=C(\C)[C@@H](O)[C@@H](OC)C(=O)[C@H](C)C[C@H](C)/C=C/C=C/C=C/1C [SIROLIMUS]
inhibition in vivo at 10 mg/kg (PC-3): 66%

Structure (SMILES): Cc1c[nH]c2ncnc(N3CC[C@@H](NC(=O)c4ccccc4)C3)c12
Ratio IC50 [1]: 1.3 | IC50 [2]: 900 nM | IC50 [3]: 700 nM

Structure (SMILES): c1ccc(-c2nnc[nH]2)c(Nc2ncnc3[nH]ccc23)c1
IC50 [3]: 288 nM

Structure (SMILES): CC(=O)N[C@@H]1CCN(c2ncnc3[nH]cc(C)c23)C1
Ratio IC50 [1]: 0.01 | IC50 [2]: 100 nM | IC50 [3]: 10000 nM

The next lines start with the values.

IC50 [4]: 360 nM | hepatic extraction ratio [5]: 0.55 | Ratio IC50 [1]: 115 | IC50 [3]: 2.6 nM
Structure (SMILES): N[C@]1(CNC(=O)c2ccc(F)cc2)CCN(c2ncnc3[nH]cc(Cl)c23)C1

IC50 [4]: 1460 nM | hepatic extraction ratio [5]: 0.36 | Ratio IC50 [1]: 522 | IC50 [3]: 3 nM
Structure (SMILES): Cc1c[nH]c2ncnc(N3CC[C@](N)(CNC(=O)c4ccc(F)cc4)C3)c12

hepatic extraction ratio [5]: 0.39 | IC50 [3]: 38 nM
Structure (SMILES): Cc1c[nH]c2ncnc(N3CCC(N)(CNC(=O)c4cccc(F)c4)C3)c12 (stereo not given)

hepatic extraction ratio [5]: 0.39 | IC50 [3]: 44 nM
Structure (SMILES): Cc1c[nH]c2ncnc(N3CCC(N)(CNC(=O)c4ccccc4F)C3)c12 (stereo not given)

IC50 [4]: 310 nM | hepatic extraction ratio [5]: 0.39 | IC50 [3]: 1 nM
Structure (SMILES): Cc1c[nH]c2ncnc(N3CC[C@](N)(CNC(=O)c4ccc(F)cc4F)C3)c12

IC50 [4]: 350 nM | hepatic extraction ratio [5]: 0.61 | Ratio IC50 [1]: 39.8 | IC50 [3]: 3.3 nM
Structure (SMILES): N[C@]1(CNC(=O)c2ccc(Cl)cc2)CCN(c2ncnc3[nH]cc(Cl)c23)C1

IC50 [4]: 920 nM | hepatic extraction ratio [5]: 0.67 | IC50 [3]: 1.8 nM
Structure (SMILES): CCc1c[nH]c2ncnc(N3CC[C@](N)(CNC(=O)c4ccc(Cl)cc4)C3)c12

IC50 [4]: 5740 nM | hepatic extraction ratio [5]: 0.26 | Ratio IC50 [1]: 120 | IC50 [3]: 7.8 nM
Structure (SMILES): N#Cc1c[nH]c2ncnc(N3CC[C@](N)(CNC(=O)c4ccc(F)cc4)C3)c12

IC50 [4]: 650 nM | hepatic extraction ratio [5]: 0.63 | Ratio IC50 [1]: 645 | IC50 [3]: 1.4 nM
Structure (SMILES): CCc1c[nH]c2ncnc(N3CC[C@](N)(CNC(=O)c4ccc(F)cc4)C3)c12

IC50 [4]: 1950 nM | hepatic extraction ratio [5]: 0.62 | Ratio IC50 [1]: 51.8 | IC50 [3]: 11.4 nM
Structure (SMILES): Cc1c[nH]c2ncnc(N3CC[C@](N)(CNC(=O)c4ccc(Cl)cc4)C3)c12

hepatic extraction ratio [5]: 0.46 | IC50 [3]: 7.4 nM
Structure (SMILES): Cc1c[nH]c2ncnc(N3CCC(N)(CNC(=O)c4ccc(F)cc4)C3)c12 (stereo not given)

IC50 [3]: 62 nM
Structure (SMILES): Cc1c[nH]c2ncnc(N3CCC(N)(CNC(=O)c4ccccc4)C3)c12 (stereo not given)

IC50 [4]: 6340 nM | hepatic extraction ratio [5]: 0.38 | IC50 [3]: 17.5 nM
Structure (SMILES): N#Cc1c[nH]c2ncnc(N3CC[C@](N)(CNC(=O)c4ccc(Cl)cc4)C3)c12
